# Laboratory results taken from patent US10088490B2, “Assay for analytes using multiple receptors” (Siemens Healthcare Diagnostics Inc., priority 2010, dated 2018).
# Tested on: Antibody L specific for cortisol (clone XM210, IgG2a)
# Assay: LOCI competitive cortisol immunoassay, cross-reactivity screening with Biotinylated Antibody L Reagent
# Type: binding
# Settings: 100% L Biotinylated Antibody; steroid-stripped serum with cortisol (5 ng/dL)
# Procedure: (§1) The antibodies were subjected to analytical size exclusion chromatography prior to any manipulations.
# (§2) NHS-PEO4-Biotin was dissolved fresh at 10 mg/mL in Antibody Dialysis Buffer. […] The mixture was rocked at 25° C. for exactly 3 hours. A 200 mM solution of glycine was prepared by dissolving 750 mg glycine in Antibody Dialysis Buffer to a total volume of 50 mL. At the end of the 3-hour biotinylation reaction, 1.52 mL of the 200 mM glycine solution was added to the reaction mixture. The quenched reaction mixture was rocked an additional 60 minutes at 25° C.
# (§3) The biotinylated antibody was then purified using preparatory HPLC using Antibody Dialysis Buffer as the mobile phase. […] This reagent was designated as the Biotinylated Antibody Reagent.
# (§4) The assay used for screening purposes was conducted on the DIMENSION® VISTA® instrument (system) (Siemens Healthcare Diagnostics Inc., Newark Del.). Initially, 20 μL Biotinylated Antibody Reagent with 15 μL system water was added to the vessel. After 22 seconds, 15 μL sample with 15 μL system water were added to the vessel. After almost 4 minutes, 20 μL Chemibead Reagent with 15 μL system water were added to the vessel. Approximately 7 minutes later, 20 μL Sensibead Reagent with 135 μL system water was added to the vessel. The LOCI® read was taken after approximately 5 minutes. The assay from the first reagent addition to the final read took approximately 16 minutes. The contents of the vessel when the final read is taken were as follows: 2 ng/mL Biotinylated Antibody Reagent, 4 μg/mL Chemibead Reagent, 56 μg/mL Sensibead Reagent, and […] sample. The assay is a competitive format, which means that the greater the concentration of analyte in the sample, the smaller is the signal generation. This is because a detectable complex is formed by the Biotinylated Antibody Reagent, Chemibead Reagent, and Sensibead Reagent in the absence of analyte. The presence of analyte decreases the proportion of Biotinylated Antibody Reagent that is free to form detectable complexes.
# (§5) Initial testing used Biotinylated Antibody A Reagent with the other reagents and the methodology described above to analyze the steroid-stripped serum with cortisol. The panel of 34 cross-reactants were individually added to the steroid-stripped serum with a defined concentration of cortisol (5 ng/dL) and assayed. Cross-reactivity data were calculated as follows:
# (§6) [formula] The same testing was performed using Biotinylated Antibody L Reagent. The compilation of the percent cross-reactivities for the 34 compounds is referred to as the cross-reactivity profile. The apparent cortisol concentration is the cortisol value obtained when testing a sample containing cortisol and the interfering substance by the above test method that also detects the interfering substance to some degree.
row,Compound,percent cross reactivity
1,CC(=O)[C@@]1(O)CC[C@H]2[C@@H]3CCC4=CC(=O)CC[C@]4(C)[C@H]3CC[C@@]21C [17α-hydroxyprogesterone],0.9%
2,C[C@]12CC[C@@H](O)C[C@H]1CC[C@@H]1[C@@H]2[C@@H](O)C[C@@]2(C)[C@H]1CC[C@]2(O)[C@@H](O)CO [α-cortol],1.0%
3,C[C@]12CCC(=O)C=C1CC[C@@H]1[C@@H]2C(=O)C[C@@]2(C)[C@H]1CC[C@]2(O)C(=O)CO [cortisone],1.4%
4,C[C@]12CCC(=O)C=C1CC[C@@H]1[C@@H]2C(=O)C[C@@]2(C)[C@H]1CC[C@]2(O)[C@H](O)CO [20β-dihydrocortisone],0.1%
5,C[C@]12CC[C@@H](O)C[C@H]1CC[C@@H]1[C@@H]2C(=O)C[C@@]2(C)[C@H]1CC[C@]2(O)[C@@H](O)CO [α-cortolone],0.0%
6,CC(=O)[C@H]1CC[C@H]2[C@@H]3CCC4=CC(=O)CC[C@]4(C)[C@H]3[C@@H](O)C[C@]12C [11β-hydroxyprogesterone],0.7%
7,C[C@]12CCC(=O)C=C1CC[C@@H]1[C@@H]2[C@@H](O)C[C@@]2(C)[C@H]1CC[C@]2(O)C(=O)COS(=O)(=O)O [sulphate 21-cortisol],0.2%
8,C[C@]12CC[C@@H](O)C[C@H]1CC[C@@H]1[C@@H]2[C@@H](O)C[C@@]2(C)[C@H]1CC[C@]2(O)[C@H](O)CO [β-cortol],0.0%
9,C[C@]12CCC(=O)C=C1CC[C@@H]1[C@@H]2[C@@H](O)C[C@@]2(C)[C@H]1CC[C@]2(O)[C@@H](O)CO [20α-dihydrocortisol],0.9%
10,C[C@]12CCC(=O)C=C1CC[C@@H]1[C@@H]2[C@@H](O)C[C@]2(C=O)[C@@H](C(=O)CO)CC[C@@H]12 [Aldosterone],0.3%

# Tested on: Antibody A specific for cortisol (clone 16DC/17.7, IgG1κ)
# Assay: LOCI competitive cortisol immunoassay, cross-reactivity screening with Biotinylated Antibody A Reagent
# Type: binding
# Settings: 100% A Biotinylated Antibody; steroid-stripped serum with cortisol (5 ng/dL)
# Procedure: as §1, §2, §3, §4, §5, §6
row,Compound,percent cross reactivity
1,CC(=O)[C@@]1(O)CC[C@H]2[C@@H]3CCC4=CC(=O)CC[C@]4(C)[C@H]3CC[C@@]21C [17α-hydroxyprogesterone],24.1%
2,C[C@]12CC[C@@H](O)C[C@H]1CC[C@@H]1[C@@H]2[C@@H](O)C[C@@]2(C)[C@H]1CC[C@]2(O)[C@@H](O)CO [α-cortol],0.2%
3,C[C@]12CCC(=O)C=C1CC[C@@H]1[C@@H]2C(=O)C[C@@]2(C)[C@H]1CC[C@]2(O)C(=O)CO [cortisone],41.7%
4,C[C@]12CCC(=O)C=C1CC[C@@H]1[C@@H]2C(=O)C[C@@]2(C)[C@H]1CC[C@]2(O)[C@H](O)CO [20β-dihydrocortisone],0.1%
5,C[C@]12CC[C@@H](O)C[C@H]1CC[C@@H]1[C@@H]2C(=O)C[C@@]2(C)[C@H]1CC[C@]2(O)[C@@H](O)CO [α-cortolone],0.0%
6,CC(=O)[C@H]1CC[C@H]2[C@@H]3CCC4=CC(=O)CC[C@]4(C)[C@H]3[C@@H](O)C[C@]12C [11β-hydroxyprogesterone],0.6%
7,C[C@]12CCC(=O)C=C1CC[C@@H]1[C@@H]2[C@@H](O)C[C@@]2(C)[C@H]1CC[C@]2(O)C(=O)COS(=O)(=O)O [sulphate 21-cortisol],22.5%
8,C[C@]12CC[C@@H](O)C[C@H]1CC[C@@H]1[C@@H]2[C@@H](O)C[C@@]2(C)[C@H]1CC[C@]2(O)[C@H](O)CO [β-cortol],0.0%
9,C[C@]12CCC(=O)C=C1CC[C@@H]1[C@@H]2[C@@H](O)C[C@@]2(C)[C@H]1CC[C@]2(O)[C@@H](O)CO [20α-dihydrocortisol],0.4%
10,C[C@]12CCC(=O)C=C1CC[C@@H]1[C@@H]2[C@@H](O)C[C@]2(C=O)[C@@H](C(=O)CO)CC[C@@H]12 [Aldosterone],0.3%

# Tested on: mixture of Biotinylated Antibody A Reagent and Biotinylated Antibody L Reagent
# Assay: LOCI competitive cortisol immunoassay, cross-reactivity with mixtures of Biotinylated Antibody A and L Reagents
# Type: binding
# Settings: 70% A 30% L Biotinylated Antibody; steroid-stripped serum with cortisol
# Procedure: as §4, §5, §6
# A further study was performed by mixing Biotinylated Antibody A Reagent with Biotinylated Antibody L Reagent in a 50:50 mixture; 80% Biotinylated Antibody A Reagent: 20% Biotinylated Antibody L Reagent; 75% Biotinylated Antibody A Reagent: 25% Biotinylated Antibody L Reagent; and 70% Biotinylated Antibody A Reagent: 30% Biotinylated Antibody L Reagent. […] These reagents were used to test cross-reactivity in stripped serum with cortisol.
row,Compound,percent cross reactivity
1,CC(=O)[C@@]1(O)CC[C@H]2[C@@H]3CCC4=CC(=O)CC[C@]4(C)[C@H]3CC[C@@]21C [17α-hydroxyprogesterone],1.6%
2,C[C@]12CC[C@@H](O)C[C@H]1CC[C@@H]1[C@@H]2[C@@H](O)C[C@@]2(C)[C@H]1CC[C@]2(O)[C@@H](O)CO [α-cortol],0.7%
3,C[C@]12CCC(=O)C=C1CC[C@@H]1[C@@H]2C(=O)C[C@@]2(C)[C@H]1CC[C@]2(O)C(=O)CO [cortisone],2.5%
4,C[C@]12CCC(=O)C=C1CC[C@@H]1[C@@H]2C(=O)C[C@@]2(C)[C@H]1CC[C@]2(O)[C@H](O)CO [20β-dihydrocortisone],0.1%
5,C[C@]12CC[C@@H](O)C[C@H]1CC[C@@H]1[C@@H]2C(=O)C[C@@]2(C)[C@H]1CC[C@]2(O)[C@@H](O)CO [α-cortolone],0.0%
6,CC(=O)[C@H]1CC[C@H]2[C@@H]3CCC4=CC(=O)CC[C@]4(C)[C@H]3[C@@H](O)C[C@]12C [11β-hydroxyprogesterone],0.7%
7,C[C@]12CCC(=O)C=C1CC[C@@H]1[C@@H]2[C@@H](O)C[C@@]2(C)[C@H]1CC[C@]2(O)C(=O)COS(=O)(=O)O [sulphate 21-cortisol],0.6%
8,C[C@]12CC[C@@H](O)C[C@H]1CC[C@@H]1[C@@H]2[C@@H](O)C[C@@]2(C)[C@H]1CC[C@]2(O)[C@H](O)CO [β-cortol],0.0%
9,C[C@]12CCC(=O)C=C1CC[C@@H]1[C@@H]2[C@@H](O)C[C@@]2(C)[C@H]1CC[C@]2(O)[C@@H](O)CO [20α-dihydrocortisol],0.7%
10,C[C@]12CCC(=O)C=C1CC[C@@H]1[C@@H]2[C@@H](O)C[C@]2(C=O)[C@@H](C(=O)CO)CC[C@@H]12 [Aldosterone],0.3%

# Same assay, conditions: 75% A 25% L Biotinylated Antibody; steroid-stripped serum with cortisol
row,Compound,percent cross reactivity
1,CC(=O)[C@@]1(O)CC[C@H]2[C@@H]3CCC4=CC(=O)CC[C@]4(C)[C@H]3CC[C@@]21C [17α-hydroxyprogesterone],1.8%
2,C[C@]12CC[C@@H](O)C[C@H]1CC[C@@H]1[C@@H]2[C@@H](O)C[C@@]2(C)[C@H]1CC[C@]2(O)[C@@H](O)CO [α-cortol],0.6%
3,C[C@]12CCC(=O)C=C1CC[C@@H]1[C@@H]2C(=O)C[C@@]2(C)[C@H]1CC[C@]2(O)C(=O)CO [cortisone],2.8%
4,C[C@]12CCC(=O)C=C1CC[C@@H]1[C@@H]2C(=O)C[C@@]2(C)[C@H]1CC[C@]2(O)[C@H](O)CO [20β-dihydrocortisone],0.1%
5,C[C@]12CC[C@@H](O)C[C@H]1CC[C@@H]1[C@@H]2C(=O)C[C@@]2(C)[C@H]1CC[C@]2(O)[C@@H](O)CO [α-cortolone],0.0%
6,CC(=O)[C@H]1CC[C@H]2[C@@H]3CCC4=CC(=O)CC[C@]4(C)[C@H]3[C@@H](O)C[C@]12C [11β-hydroxyprogesterone],0.7%
7,C[C@]12CCC(=O)C=C1CC[C@@H]1[C@@H]2[C@@H](O)C[C@@]2(C)[C@H]1CC[C@]2(O)C(=O)COS(=O)(=O)O [sulphate 21-cortisol],0.7%
8,C[C@]12CC[C@@H](O)C[C@H]1CC[C@@H]1[C@@H]2[C@@H](O)C[C@@]2(C)[C@H]1CC[C@]2(O)[C@H](O)CO [β-cortol],0.0%
9,C[C@]12CCC(=O)C=C1CC[C@@H]1[C@@H]2[C@@H](O)C[C@@]2(C)[C@H]1CC[C@]2(O)[C@@H](O)CO [20α-dihydrocortisol],0.6%
10,C[C@]12CCC(=O)C=C1CC[C@@H]1[C@@H]2[C@@H](O)C[C@]2(C=O)[C@@H](C(=O)CO)CC[C@@H]12 [Aldosterone],0.3%

# Same assay, conditions: 80% A 20% L Biotinylated Antibody; steroid-stripped serum with cortisol
row,Compound,percent cross reactivity
1,CC(=O)[C@@]1(O)CC[C@H]2[C@@H]3CCC4=CC(=O)CC[C@]4(C)[C@H]3CC[C@@]21C [17α-hydroxyprogesterone],2.1%
2,C[C@]12CC[C@@H](O)C[C@H]1CC[C@@H]1[C@@H]2[C@@H](O)C[C@@]2(C)[C@H]1CC[C@]2(O)[C@@H](O)CO [α-cortol],0.5%
3,C[C@]12CCC(=O)C=C1CC[C@@H]1[C@@H]2C(=O)C[C@@]2(C)[C@H]1CC[C@]2(O)C(=O)CO [cortisone],3.1%
4,C[C@]12CCC(=O)C=C1CC[C@@H]1[C@@H]2C(=O)C[C@@]2(C)[C@H]1CC[C@]2(O)[C@H](O)CO [20β-dihydrocortisone],0.1%
5,C[C@]12CC[C@@H](O)C[C@H]1CC[C@@H]1[C@@H]2C(=O)C[C@@]2(C)[C@H]1CC[C@]2(O)[C@@H](O)CO [α-cortolone],0.0%
6,CC(=O)[C@H]1CC[C@H]2[C@@H]3CCC4=CC(=O)CC[C@]4(C)[C@H]3[C@@H](O)C[C@]12C [11β-hydroxyprogesterone],0.6%
7,C[C@]12CCC(=O)C=C1CC[C@@H]1[C@@H]2[C@@H](O)C[C@@]2(C)[C@H]1CC[C@]2(O)C(=O)COS(=O)(=O)O [sulphate 21-cortisol],0.9%
8,C[C@]12CC[C@@H](O)C[C@H]1CC[C@@H]1[C@@H]2[C@@H](O)C[C@@]2(C)[C@H]1CC[C@]2(O)[C@H](O)CO [β-cortol],0.0%
9,C[C@]12CCC(=O)C=C1CC[C@@H]1[C@@H]2[C@@H](O)C[C@@]2(C)[C@H]1CC[C@]2(O)[C@@H](O)CO [20α-dihydrocortisol],0.6%
10,C[C@]12CCC(=O)C=C1CC[C@@H]1[C@@H]2[C@@H](O)C[C@]2(C=O)[C@@H](C(=O)CO)CC[C@@H]12 [Aldosterone],0.3%

# Same assay, conditions: incorporation of 25% Biotinylated Antibody Reagent L versus 100% A
row,Compound,decrease of percent cross-reactivity
1,C[C@]12CCC(=O)C=C1CC[C@@H]1[C@@H]2C(=O)C[C@@]2(C)[C@H]1CC[C@]2(O)C(=O)CO [cortisone],greater than 90%
